Test results as given in ChEMBL document CHEMBL1133736, “Modeling cyclooxygenase inhibition. Implication of active site hydration on the selectivity of ketoprofen analogues” (J Med Chem, 2000).

Columns and labels:
[1] = target: Prostaglandin G/H synthase 1 (Homo sapiens, UniProt P23219); experiment: Concentration required for 50% inhibition against Prostaglandin G/H synthase 1 from human
[2] = target: T1, Prostaglandin G/H synthase 2 (Homo sapiens, UniProt P35354); experiment: Concentration required for 50% inhibition against Prostaglandin G/H synthase 2 from human
T1 sequence (P35354 whole entry): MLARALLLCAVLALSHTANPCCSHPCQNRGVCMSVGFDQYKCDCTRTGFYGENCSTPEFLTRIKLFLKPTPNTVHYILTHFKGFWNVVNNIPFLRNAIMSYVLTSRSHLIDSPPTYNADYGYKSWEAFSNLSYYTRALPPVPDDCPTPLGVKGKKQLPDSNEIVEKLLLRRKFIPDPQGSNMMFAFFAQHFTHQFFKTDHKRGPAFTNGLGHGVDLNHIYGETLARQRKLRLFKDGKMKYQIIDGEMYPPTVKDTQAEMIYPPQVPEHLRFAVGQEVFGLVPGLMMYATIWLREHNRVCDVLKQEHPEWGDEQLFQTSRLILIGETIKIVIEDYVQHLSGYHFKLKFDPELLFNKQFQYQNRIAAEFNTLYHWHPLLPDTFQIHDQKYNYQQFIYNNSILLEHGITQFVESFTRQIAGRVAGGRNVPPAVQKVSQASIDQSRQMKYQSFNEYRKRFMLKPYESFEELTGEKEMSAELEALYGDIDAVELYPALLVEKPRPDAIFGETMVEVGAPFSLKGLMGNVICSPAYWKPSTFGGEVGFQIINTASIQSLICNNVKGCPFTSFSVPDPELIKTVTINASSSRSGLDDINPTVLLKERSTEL

Sequence of Prostaglandin G/H synthase 1 (P23219 whole entry): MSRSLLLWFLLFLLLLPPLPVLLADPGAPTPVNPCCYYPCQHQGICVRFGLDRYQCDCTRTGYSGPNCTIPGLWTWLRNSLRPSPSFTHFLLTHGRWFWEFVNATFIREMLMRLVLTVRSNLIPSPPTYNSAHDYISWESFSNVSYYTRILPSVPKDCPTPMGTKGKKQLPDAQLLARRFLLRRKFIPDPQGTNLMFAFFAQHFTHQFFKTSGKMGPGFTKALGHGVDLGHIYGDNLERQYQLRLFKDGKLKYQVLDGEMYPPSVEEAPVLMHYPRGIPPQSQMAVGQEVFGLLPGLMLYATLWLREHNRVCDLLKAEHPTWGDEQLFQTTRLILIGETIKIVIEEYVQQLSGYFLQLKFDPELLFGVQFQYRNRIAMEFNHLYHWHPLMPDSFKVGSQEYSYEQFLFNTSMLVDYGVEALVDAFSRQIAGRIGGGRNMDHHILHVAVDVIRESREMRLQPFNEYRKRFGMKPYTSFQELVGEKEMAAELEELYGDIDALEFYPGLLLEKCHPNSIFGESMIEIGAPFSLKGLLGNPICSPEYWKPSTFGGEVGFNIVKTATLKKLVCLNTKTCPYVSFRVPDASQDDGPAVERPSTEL

IC50 [1] [nM]	IC50 [2] [nM]	Compound
51	300	CC(C(=O)O)c1cc(C(=O)c2ccccc2)ccc1O (stereo not drawn)
42	–	COc1ccc(C(=O)c2ccccc2)cc1C(C)C(=O)O (stereo not drawn)
